The source made the active and inactive calls. No cut-off for these calls is given here.
Tests used:
Platelet [1] = test: Induction of platelet aggregation in New Zealand white rabbit ear vein plasma assessed as LDH activity at 0.36 mM; assay type: functional, cell-based; conditions: Oryctolagus cuniculus
Oryctolagus cuniculus [2] = organism: Oryctolagus cuniculus; test: Inhibition of FAAH in New Zealand white rabbit ear vein platelet assessed as [3H]anandamide hydrolysis at 7.5 uM
Oryctolagus cuniculus [3] = organism: Oryctolagus cuniculus; test: Inhibition of FAAH in New Zealand white rabbit ear vein platelets assessed as [3H]anandamide hydrolysis at 1.5 uM
Platelet [4] = test: Inhibition of PAF-induced platelet aggregation in New Zealand white rabbit ear vein plasma; assay type: functional, cell-based; conditions: Oryctolagus cuniculus
Platelet [5] = test: Induction of platelet aggregation in New Zealand white rabbit ear vein plasma in presence of aspirin; assay type: functional, cell-based; conditions: Oryctolagus cuniculus
Platelet [6] = test: Induction of platelet aggregation in New Zealand white rabbit ear vein plasma at 18 uM to 70 uM; assay type: functional, cell-based; conditions: Oryctolagus cuniculus
Platelet [7] = test: Induction of in New Zealand white rabbit ear vein plasma in presence of URB597; assay type: functional, cell-based; conditions: Oryctolagus cuniculus
Platelet [8] = test: Induction of platelet aggregation in New Zealand white rabbit ear vein plasma in presence of PMSF; assay type: functional, Oryctolagus cuniculus
Platelet [9] = test: Induction of platelet aggregation in New Zealand white rabbit ear vein plasma in presence of indomethacin; assay type: functional, cell-based; conditions: Oryctolagus cuniculus
Platelet [10] = test: Induction of platelet aggregation in New Zealand white rabbit ear vein plasma at 100 uM to 1000 uM; assay type: functional, cell-based; conditions: Oryctolagus cuniculus

Structure (SMILES)	Activity (Platelet [1])	Activity (Oryctolagus cuniculus [2])	Activity (Oryctolagus cuniculus [3])	IC50 (Platelet [4]) [µM]	Activity (Platelet [5])	Activity (Platelet [6])	Activity (Platelet [7])	inhibition (INH) (Platelet [8]) [%]	Activity (Platelet [9])	Activity (Platelet [10])
CCCCC/C=C\C/C=C\C/C=C\C/C=C\CCCC(=O)NCCO	Dose-dependent effect	Active	Active	–	–	–	–	–	–	–
CCCCC/C=C/C/C=C/C/C=C/C/C=C/CCCC(=O)NCCO	Active	Active	Active	4.7	Active	Dose-dependent effect	inactive	20	Active	Dose-dependent effect
